Reference: PubChem BioAssay AID1959 (Broad Institute, 2009)
Active and inactive are the calls of the source.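 The calls were made as follows: active = growth-inhibition EC50 no more than tenfold above the top tested dose; inconclusive = flat fit between 30% and 70% inhibition, or unreliable fit; inactive = EC50 more than tenfold above the top tested dose.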

What follows are compounds tested on E. coli NEB5alpha growth, BacTiter-Glo luminescence, 4 h (assay: antibacterial activity against E. coli NEB5alpha – luminescence, counter-screen for MEX-5/POS-1 RNA-binding inhibitor project, dose response (AID 1959);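 also: pUC19-transformed ampicillin-resistant cells grown in LB with ampicillin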).

Structure (SMILES) | EC50
Cc1ccc(/C=C/C(=O)O)cc1S(=O)(=O)N1CCCCC1 | > 11 µM (inactive)
Cc1ccc(CN(C)C(=O)CC2C(=O)NCCN2CC2CCCCC2)cc1 (centres undefined) | > 11 µM (inactive)
Cc1ccc(S(=O)(=O)NNc2nc3ccccc3nc2C(F)(F)F)cc1 | > 11 µM (inactive)
CN1C(=O)NC(c2ccccc2[N+](=O)[O-])C2=C1CCCC2=O (centres undefined) | > 11 µM (inactive)
CN1C(=O)/C(=C/c2ccc(N3CCCCCC3)o2)C(=O)NC1=S | > 11 µM (inactive)
CC(=O)c1c(C(C)=O)c(C)n(-c2ccc(C(=O)O)cc2)c1C | > 11 µM (inactive)
COc1ccc(-n2nc3c(=O)[nH][nH]c3cc2=O)cc1 | > 11 µM (inactive)
CN=C1S/C(=C\c2ccc(N3CCCC3)c(F)c2)C(=O)N1C | > 11 µM (inactive)
CC/C(=C\C=C\[C@@H]1C=C[C@@H]2CCC[C@H]2[C@@H]1C(=O)c1ccc[nH]1)[C@@H]1O[C@@H]([C@@H](C)C(=O)O)CC[C@@H]1C | > 11 µM (inactive)
Cc1ccc2c(c1)C1C=CCC1C(C(=O)NCCCN1CCOCC1)N2 (centres undefined) | > 11 µM (inactive)
CCOC(=O)c1c2c3c(cccc3n(C)c1=O)C(=O)c1ccccc1-2 | > 11 µM (inactive)
CCOC(CNC(=O)CCc1c(C)nc2nc(C)nn2c1C)OCC | > 11 µM (inactive)
CC1(C)c2[nH]c3ccccc3c2C[C@@H]2C(=O)N(c3ccc(F)cc3F)C(=O)N21 | > 11 µM (inactive)
COc1cc(-c2cc(=O)c3c(O)c(OC)c(OC)c(O)c3o2)ccc1O | > 11 µM (inactive)
O=C1C2CC=C(Cl)CC2C(=O)N1CC1Cc2ccccc2CO1 (centres undefined) | > 11 µM (inactive)
CN1CCc2c(sc(NC(=O)c3ccc4ccccc4c3)c2C(N)=O)C1 | > 11 µM (inactive)
O=C(COC(=O)C1CCCC1)Nc1ncc(Cl)cc1Cl | > 11 µM (inactive)
CCOC(=O)c1cc(CC)sc1/N=C/c1c(O)[nH]c(=S)[nH]c1=O | > 11 µM (inactive)
O=C(N/N=C/C=C/c1ccc([N+](=O)[O-])cc1)c1cccs1 | > 11 µM (inactive)
Cc1cc(/C=C(/C#N)c2nc3ccccc3[nH]2)c(C)n1-c1ccccc1C(=O)O | > 11 µM (inactive)
CCC(=O)OC1(C)C(=O)C=C2C=C(CCCCNC(=O)OC(C)(C)C)OC=C2C1=O (centres undefined) | > 11 µM (inactive)
CC(=NC1CCCC1)c1c(C)[nH]n(-c2nc3ccccc3s2)c1=O | > 11 µM (inactive)
COc1ccc(NC(=O)c2ccc(NCCCN3CCOCC3)c([N+](=O)[O-])c2)cc1 | > 11 µM (inactive)
Cc1cc2nc3ccc(N(C)C)cc3nc2cc1N | > 11 µM (inactive)

Structure (SMILES) | EC50
CCCCC1=CC2=CC(=O)C(C)(OC(=O)c3cccs3)C(=O)C2=CO1 (centres undefined) | > 11 µM (inactive)
O=c1oc2c3c4c(cc2s1)CCCN4CCC3 | > 11 µM (inactive)
Cc1cc(N=Cc2c(O)n(-c3ccc4c(c3)OCO4)c(=O)c3ccccc23)ccn1 | > 11 µM (inactive)
COc1ccccc1NC(=S)NNC(=O)c1cc(C)n(C)n1 | > 11 µM (inactive)
O=C(O)c1cccc(-n2cccc2C=C2C(=O)c3ccccc3C2=O)c1 | > 11 µM (inactive)
CC(=O)Nc1ccc(/C=C/C(=O)c2ccc3c(c2)OCCO3)cc1 | > 11 µM (inactive)
COc1ccc(OC)c(N=Cc2c(O)c3ccccc3oc2=O)c1 | > 11 µM (inactive)
O=C(NCc1ccccc1)C1Nc2ccc(OC(F)(F)F)cc2C2C=CCC12 (centres undefined) | > 11 µM (inactive)
CCOC(=O)c1c(/N=C/C2C(=O)NC(=S)NC2=O)sc(C)c1C | > 11 µM (inactive)
N#CC(C(=O)NCc1ccccc1)c1nc2ccccc2nc1N1CCCC1 (centres undefined) | > 11 µM (inactive)
Cc1ccc(NC(=O)CN2C(=O)N/C(=C\c3cccn3-c3cccc(C(=O)O)c3)C2=O)cc1 | > 11 µM (inactive)
C=Cc1c(C)c2cc3[nH]c(cc4nc(cc5nc(cc1[nH]2)C(C)=C5CCC(=O)O)C(CCC(=O)O)=C4C)c(C)c3C=C | > 11 µM (inactive)
O=C(COC(=O)CCc1c[nH]c(=O)[nH]1)Nc1ccccc1Cl | > 11 µM (inactive)
C=CCOn1c(=O)c(-c2cc3ccccc3o2)[n+]([O-])c2ccccc21 | > 11 µM (inactive)
Cc1cccc(NC2=Nc3ccccc3N3C2=Nc2c(c(C)nn2-c2ccccc2)C3c2ccc(O)c(O)c2)c1 (centres undefined) | > 11 µM (inactive)
O=C(c1ccco1)N1CCN(c2ncnc3c(-c4ccc(Cl)cc4)nsc23)CC1 | > 11 µM (inactive)
CCc1ccccc1N1C(=O)/C(=C/c2ccc(N3CCN(C)CC3)o2)C(=O)NC1=S | > 11 µM (inactive)
COC(=O)CNC(=O)C1Nc2ccc(OC(F)(F)F)cc2C2C=CCC12 (centres undefined) | > 11 µM (inactive)
Oc1[nH]c2ccccc2c1N=Nc1cccc(Cl)c1 | > 11 µM (inactive)
COc1ccc(-c2nnc(-c3cc4c(ccc5ccccc54)oc3=O)o2)cc1 | > 11 µM (inactive)
Cc1cc2c3c(c1C)C1(C(=O)N3C(C)(C)CC2C)C(C#N)=C(N)OC2=C1C(=O)CC(C)(C)C2 (centres undefined) | > 11 µM (inactive)
CN1C(=O)c2cccc3c(N)ccc(c23)C1=O | > 11 µM (inactive)
Cn1c(=O)c(N)c2c3c(c(Br)ccc31)C(=O)c1ccccc1-2 | > 11 µM (inactive)
CNC(=O)c1c(NC(=O)c2ccc(S(=O)(=O)N3CCCCC3C)cc2)sc2c1CCN(C)C2 (centres undefined) | > 11 µM (inactive)

Structure (SMILES) | EC50
COc1ccc(C2C(C#N)=C(N)OC3=C2C(=O)CCC3)cc1Cn1nc(C)c([N+](=O)[O-])c1C (centres undefined) | > 11 µM (inactive)
NC(=O)c1snnc1-c1ccccc1 | > 11 µM (inactive)
N#Cc1c(-c2ccc(Cl)cc2)c2c([nH]c1=O)-c1ccccc1OC2 | > 11 µM (inactive)
Cc1cc(=O)nc2c3ccccc3n(CC(=O)Nc3ccccc3Br)n12 | > 11 µM (inactive)
Fc1ccc(-c2nc3c(Cl)cc(C(F)(F)F)cn3c2Cl)cc1 | > 11 µM (inactive)
CC1=Nc2ccc(C)cc2/C1=C/c1c(N)n2nc(CC(=O)N3CCOCC3)sc2nc1=O | > 11 µM (inactive)
COc1ccc2nc3ccccc3nc2c1NC(=O)c1ccc(Br)cc1 | > 11 µM (inactive)
Cc1cc(C)c(S(=O)(=O)Nc2cc(SCC(=O)O)c(O)c3ccccc23)cc1C | > 11 µM (inactive)
COc1ccc(/C=C2\CCCC(C(=O)C(F)(F)F)=C2O)cc1OC | > 11 µM (inactive)
COc1ccc(/C=N/NC(=O)c2ccc(N(C)S(=O)(=O)c3ccccc3)cc2)cc1 | > 11 µM (inactive)
CCOC(=O)[C@@]1(C#N)C(c2ccc(Cl)c(Cl)c2)[C@H](C(N)=O)N2C=C(C(C)=O)C=C[C@H]21 (some centres undefined) | > 11 µM (inactive)
N#Cc1c(N)n(-c2cccc(C(=O)O)c2)c2nc3ccccc3nc12 | > 11 µM (inactive)
Cc1ccc(/C(O)=C/c2nc3ccccc3oc2=O)cc1 | > 11 µM (inactive)
Cc1nc(-c2ccc(O)c(O)c2)cs1 | > 11 µM (inactive)
COc1ccc(N2C(=O)NC(=O)/C(=C/c3ccc([N+](=O)[O-])s3)C2=O)cc1 | > 11 µM (inactive)
O=C(O)c1ccc(-n2c(-c3cc(-c4ccco4)[nH]n3)n[nH]c2=S)cc1 | > 11 µM (inactive)
CN1CCc2cc3c(c4c2[C@H]1[C@H](O)c1ccccc1-4)OCO3 | > 11 µM (inactive)
COc1ccc(-n2c(C)cc(/C=C3\SC(=S)N(Cc4ccco4)C3=O)c2C)cc1 | > 11 µM (inactive)
COc1ccc(/C=C(\C#N)C(=O)NCC2CCCO2)cc1OC (centres undefined) | > 11 µM (inactive)
CCn1cc(C=C2C(=O)N(C)C(=O)N(C)C2=O)c2ccccc21 | > 11 µM (inactive)
CC(=O)c1cc(NC(=O)c2cccc(C(F)(F)F)c2)c(=O)oc1/C=C/N(C)C | > 11 µM (inactive)
O=C(O)CCCN1C(=O)/C(=C/c2ccc(-c3nc4ccccc4s3)o2)SC1=S | > 11 µM (inactive)
O=C/C(=C\Nc1ccccn1)c1nc2cc(Cl)ccc2o1 | > 11 µM (inactive)
COC(=O)c1cc(C(=O)OC)cc(-n2c(C)cc(C=O)c2C)c1 | > 11 µM (inactive)

Structure (SMILES) | EC50
Cc1ccc(C)c(N(C)C(=O)c2coc(=O)c3ccccc23)c1 | > 11 µM (inactive)
c1coc(-c2nc3ccccc3nc2-c2ccco2)c1 | > 11 µM (inactive)
CCN(CC)CCCNC(=O)CCC(=O)NNc1nc2ccccc2c2nc(C)nn12 | > 11 µM (inactive)
O=C(N/N=C\c1ccc(-c2ccc(Cl)c(Cl)c2)o1)C(=O)N1CCCC1 | > 11 µM (inactive)
O=C(NNC(=O)c1ccccc1[N+](=O)[O-])c1cnccn1 | > 11 µM (inactive)
N#C/C(=C/c1ccc(CNS(=O)(=O)c2ccccc2)o1)C(=O)NCc1ccccc1 | > 11 µM (inactive)
CCOC(=O)N1CCN(c2nc3ccccc3nc2C(C#N)S(=O)(=O)c2ccc(C)cc2)CC1 (centres undefined) | > 11 µM (inactive)
CCNC(=O)c1cc2c(=O)n3cccc(C)c3nc2n(CCc2ccccc2)c1=N | > 11 µM (inactive)
Cc1cccn2c(=O)c3cc(S(=O)(=O)c4ccccc4)c(=N)n(CC4CCCO4)c3nc12 (centres undefined) | > 11 µM (inactive)
CC(=O)c1sc2nc(-c3cccs3)cc(C(F)(F)F)c2c1N | > 11 µM (inactive)
O=C(O)c1ccc(-n2cccc2/C=C2/SC(=O)N(CC(=O)N3CCCC3)C2=O)cc1 | > 11 µM (inactive)
C/C(=N\Nc1ccc(Cl)c(C(=O)O)c1)c1ccc[nH]1 | > 11 µM (inactive)
CC1=C(C#N)C(=O)NC(=O)/C1=C/c1ccc(-c2ccc(S(N)(=O)=O)cc2)o1 | > 11 µM (inactive)
CC(C)(C)OC(=O)NCCCCC1=CC2=CC(=O)C(C)(OC(=O)c3cnc4ccccc4n3)C(=O)C2=CO1 (centres undefined) | > 11 µM (inactive)
C(=N\NC(=Nc1ccccc1)c1ccccn1)/c1ccccn1 | > 11 µM (inactive)
O=C(CC1Nc2ccccc2NC1=O)Nc1cc(Cl)cc(Cl)c1 (centres undefined) | > 11 µM (inactive)
O=C1C([N+](=O)[O-])=C(O)c2cccc3cccc1c23 | > 11 µM (inactive)
Cc1cc2nc3ccc(=[N+](C)C)cc-3sc2cc1N | > 11 µM (inactive)
Nc1c(O)ccc2c1C(=O)c1ccccc1C2=O | > 11 µM (inactive)
COc1cc2c3nnc(-c4ccc(F)cc4)c-3cn(Cc3ccc(C)cc3)c2cc1OC | > 11 µM (inactive)
CCN1CCc2c(sc(NC(=O)c3ccc4ccccc4c3)c2C(N)=O)C1 | > 11 µM (inactive)
Fc1ccc(NCc2cccnc2)cc1F | > 11 µM (inactive)
